Test system: human IRS-2 gene
Assay: Association analysis of human IRS-2 gene polymorphisms and granulocytopenia induced by vesnarinone administration
Format: in vivo
Settings: subjects who had received vesnarinone
Text: In order to find genetic polymorphisms in relation to granulocytopenia attributed to drug administration, there were employed subjects who had received vesnarinone (3,4-dihydro-6-[4-(3,4-dimethoxybenzoy1)-1-piperaziny1]-2(1H)-quinoline).
Among subjects who had received vesnarinone, had orally agreed to cooperate with investigation of the cause for vesnarinone-induced granulocytopenia between May 1991 and October 1996, and had accepted to provide a blood sample, there were employed 84 subjects (male/female ratio=1.21:1) who had again agreed in writing to cooperate with genetic analysis according to ethical guidelines between July 2001 and December 2001. Genomic DNA was extracted from a blood sample (or a cell sample derived therefrom) of each of the subjects who had again agreed described above. through a common method, and was employed for the below-described tests.
Among the subjects, subjects having leukocytes or neutrophils which were decreased to half or less following vesnarinone administration, and having the number of leukocytes of 2,000/mm^3 or less, or the number of neutrophils of 1,000/mm^3 or less were classified as “subjects with granulocytopenia”.
Each of these groups was further classified into two groups according to sex, to thereby become four subgroups; i.e., a group of 13 male with granulocytopenia (group A), a group of 17 female with granulocytopenia (group B), a group of 33 male without granulocytopenia (group C), and a group of 21 female without granulocytopenia (group D).
The allele frequencies in the group of subjects with granulocytopenia were compared to that of subjects without granulocytopenia by the contingency χ square test. The odds ratio was estimated through the Brown method (Brown, C. C., Am. J. Epidemiol., 113: 474-480 (1981)). The 95% confidence interval of odds ratio was calculated through the Woolf method.
In order to determine the genotype distribution, all polymorphisms identified by the discovery above were analyzed in the all subjects described in Example 1 by amplifying the regions containing the polymorphisms with primer sets and sequencing the PCR products under the condition described above.
In addition to the statistical methods employed in Example 1, a pair-wise linkage disequilibrium coefficient (D′=D/Dmax or D/Dmin) was calculated by use of the method by Thompson, et al. (Thompson, E. A., et al., Am. J. Hum. Genet. 42: 113-124 (1988))

## COc1ccc(C(=O)N2CCN(c3ccc4c(c3)CCC(=O)N4)CC2)cc1OC [vesnarinone, 3,4-dihydro-6-[4-(3,4-dimethoxybenzoy1)-1-piperaziny1]-2(1H)-quinoline]
IRS-2 A15870G genotype AA, total 27
  subjects with agranulocytosis N (%): 10 (37.0) N (%)
IRS-2 A15870G genotype AA, total 49
  subjects without agranulocytosis N (%): 36 (73.5) N (%)
IRS-2 A15870G genotype AG + GG, total 27
  subjects with agranulocytosis N (%): 17 (63.0) N (%)
IRS-2 A15870G genotype AG + GG, total 49
  subjects without agranulocytosis N (%): 13 (26.5) N (%)
IRS-2 A29793G genotype AA, total 30
  subjects with agranulocytosis N (%): 11 (36.7) N (%)
IRS-2 A29793G genotype AA, total 53
  subjects without agranulocytosis N (%): 39 (73.6) N (%)
IRS-2 A29793G genotype AG + GG, total 30
  subjects with agranulocytosis N (%): 19 (63.3) N (%)
IRS-2 A29793G genotype AG + GG, total 53
  subjects without agranulocytosis N (%): 14 (26.4) N (%)
IRS-2 A-1164C genotype AA, total 30
  subjects with agranulocytosis N (%): 8 (26.7) N (%)
IRS-2 A-1164C genotype AA, total 49
  subjects without agranulocytosis N (%): 29 (59.2) N (%)
IRS-2 A-1164C genotype AC + CC, total 30
  subjects with agranulocytosis N (%): 22 (73.3) N (%)
IRS-2 A-1164C genotype AC + CC, total 49
  subjects without agranulocytosis N (%): 20 (40.8) N (%)
IRS-2 AT-2510del genotype AT, total 29
  subjects with agranulocytosis N (%): 7 (24.1) N (%)
IRS-2 AT-2510del genotype AT, total 49
  subjects without agranulocytosis N (%): 28 (57.1) N (%)
IRS-2 AT-2510del genotype ATdel + del, total 29
  subjects with agranulocytosis N (%): 22 (75.9) N (%)
IRS-2 AT-2510del genotype ATdel + del, total 49
  subjects without agranulocytosis N (%): 21 (42.9) N (%)
IRS-2 C31532del genotype CC, total 27
  subjects with agranulocytosis N (%): 9 (33.3) N (%)
IRS-2 C31532del genotype CC, total 48
  subjects without agranulocytosis N (%): 34 (70.8) N (%)
IRS-2 C31532del genotype Cdel + del, total 27
  subjects with agranulocytosis N (%): 18 (66.7) N (%)
IRS-2 C31532del genotype Cdel + del, total 48
  subjects without agranulocytosis N (%): 14 (29.2) N (%)
IRS-2 C-4587A genotype CA + AA, total 28
  subjects with agranulocytosis N (%): 21 (75.0) N (%)
IRS-2 C-4587A genotype CA + AA, total 49
  subjects without agranulocytosis N (%): 20 (40.8) N (%)
IRS-2 C-4587A genotype CC, total 28
  subjects with agranulocytosis N (%): 7 (25.0) N (%)
IRS-2 C-4587A genotype CC, total 49
  subjects without agranulocytosis N (%): 29 (59.2) N (%)
